Legend:
[1] = tested on: LX-2 cells; test: ROS production induced by PMA in LX-2 cells; assay type: cell-based, human; conditions: FIG. 1
Source text: (§1) In order to confirm the effect of the compounds of Synthetic examples on ROS production from fibroblasts and specific substrate cells, ROS production was induced by stimulation of PMA (phorbol 12-myristate 13-acetate), TGF-β1, palmitate or high concentration-glucose, or the like, in HL-60 cells differentiated into neutrophil cells by DMSO treatment, NHLF (normal human lung fibroblast, Lonza), LX-2 (human hepatic stellate cells, Sigma), ARPE19 (human retinal pigment epithelial cell, ATCC), and KEL-FIB (Keloid fibroblast, ATCC) cells, and under this condition, the inhibitory effect of ROS production of the compounds of Synthetic Examples was observed.
(§2) The NHLF (normal human lung fibroblast, Lonza), LX-2 (human hepatic stellate cells, Sigma), ARPE19 (human retinal pigment epithelial cell, ATCC), KEL-FIB (keloid fibroblast, ATCC) cells were suspended in a culture medium containing 10% FBS and aliquoted on a 96 well plate and then cultured under the condition of 5% CO2, 37° C. for 24 hours. After pre-treating the compounds of Synthetic examples at a concentration of 10, 20, 30, 40, 60 and 80 μM for 30 minutes to 1 hour, the ROS stimulus was treated to each well containing the cells and drug. After additional culturing for 48 hours, the ROS production level was confirmed using L-012 or DCF-DA.

[2] = tested on: NHLF cells; test: ROS production induced by PMA in NHLF cells; assay type: cell-based, human; conditions: FIG. 1
Source text: as §1, §2

[3] = tested on: HL-60 cells differentiated into neutrophil cells; test: ROS production induced by PMA in HL-60 cells differentiated into neutrophil cells; assay type: cell-based; conditions: Homo sapiens, 0.5 h; differentiated HL-60 cells, compounds 0.5 uM (0.5 mM in the source) for 30 minutes, 200 nM PMA, L-012 luminescence
Source text: as §1
HL-60 cells (human leukemia cells, ATCC) were suspended in a medium containing 1.25% DMSO (RPMI+10% FBS) and cultured under the condition of 5% CO2, 37° C. for 6 days, thereby inducing differentiation into neutrophil cells. […] Then, to each well comprising the cells and drug, 200 nM PMA was treated to induce ROS production, and such ROS production was measured by observing the luminescence level of each well using 100 μM L-012.

[4] = tested on: HFF-1 cells; test: Collagen gel contraction induced by TGF-β1 in HFF-1 cells; assay type: cell-based, human; conditions: HFF-1 cells in collagen gel, TGF-β1 10 ng/ml, 72 hours, FIG. 7
Source text: In order to confirm the effect of the compounds of Synthetic examples on differentiation of fibroblasts into myofibroblasts, the inhibitory effect of the compounds of Synthetic examples on the phenomenon of contraction of gel induced by interaction of human foreskin fibroblasts (HFF-1, ATCC) and collagen was observed.
The mixed solution of the HFF-1 cells and collagen (bovine type I collagen) prepared at a concentration of 3×10^6 cells/ml was aliquoted in a 24 well plate, respectively, and then cultured under the condition of 5% CO2, 37° C. for 1 hour to induce gel polymerization. Then, after suspending the gel attached on the plate from the plate using a spoon, a medium comprising TGF-β1 and Synthetic example compounds was added to each well. After culturing for 72 hours, the Synthetic example compounds were treated by 10, 20, 30, 40, 60 and 80 μM to measure the size of the gel, and thereby, the degree of contraction of the gel by drug treatment was confirmed.

[5] = tested on: N27 cells; test: ROS production induced by alpha-synuclein preformed fibril (PFF) in N27 cells; assay type: cell-based, rat; conditions: 0.001 μM compound, 24 hours, CellROX-Deep Red, FIG. 2
Experimental: In order to confirm the effect of the compounds of Synthetic examples on ROS production from dopaminergic neural cells, ROS production was induced by alpha-synuclein preformed fibril (PFF) stimulation on N27 (rat dopaminergic neural cell, Sigma) cells and under this condition, the inhibitory effect of ROS production of the compounds of Synthetic examples was observed.
The N27 cells were cultured in RPMI medium containing 10% FBS, 1 μM angiotensin II, and the prepared cells were aliquoted at a concentration of 4×10^3 cells/well on a 6-well plate. The ROS production stimulus, PFF (preformed fibril) and the compounds of Synthetic examples were treated to the cells. After treating the compounds of Synthetic examples for 24 hours, fluorescence of each well was measured using CellROX-Deep Red reagent, thereby confirming the degree of ROS production.

[6] = tested on: IL-8; test: Expression of IL-8 in pancreatic cancer associated fibroblasts (ELISA); assay type: cell-based, human; conditions: P.CAF cells, 48 hours treatment, FIG. 6
Experimental: (§3) In order to confirm the effect of the compounds of Synthetic examples of the present invention on inflammation reaction in cancer associated fibroblasts, whether the expression of IL6 and IL8 was inhibited by the compounds of Synthetic examples in pancreatic cancer associated fibroblasts (P.CAF) was observed.
(§4) After inoculating 1.5×10^5 cells in a 6 well plate and then culturing in P.CAF complete media for 48 hours, the compounds of Synthetic examples were treated by 10, 20, 30, 40, 60 and 80 μM for 48 hours according to each condition, and then the expression of IL-6 and IL-8 was confirmed by performing ELISA with Quantkine ELISA kit (R&D systems) as follows.
(§5) 100 μl of the culture solution in which the compounds of Synthetic examples were treated for 48 hours was added to the microplate strip for analysis including a 100 μl assay diluent and left at a room temperature for 2 hours and then the contents were removed, and then it was washed with 400 μl wash buffer 4 times. 200 μl of a human IL-6 or IL-8 conjugate was added and left at a room temperature for 2 hours and then the contents were removed, and then it was washed with 400 μl wash buffer 4 times. 200 μl of substrate solution was added and left at a room temperature for 20 minutes and then 50 μl of stop solution was added, and the absorbance at a wavelength of 450 nm was measured within 30 minutes to confirm the expression level of IL-6 and IL-8.

[7] = tested on: IL-6; test: Expression of IL-6 in pancreatic cancer associated fibroblasts (ELISA); assay type: cell-based, human; conditions: P.CAF cells, 48 hours treatment, FIG. 5
Experimental: as §3, §4, §5

| Structure (SMILES) | ROS production induced by PMA [1] | ROS production induced by PMA [2] | inhibition at 0.5 µM [3] [%] | contraction of the gel induced by TGF-β1 [4] | ROS production induced by PFF [5] | IL-8 expressed in P.CAF [6] | IL-6 expressed in P.CAF [7] |
| --- | --- | --- | --- | --- | --- | --- | --- |
| OCCOCCN1CCN(C2CCc3nn(-c4ccccn4)c(O)c3C2)CC1 (centres unmarked) [Compound 17, 5-{4-[2-(2-hydroxyethoxy)-ethyl]-piperazin-1-yl}-2-pyridin-2-yl-4,5,6,7-tetrahydro-2H-indazol-3-ol] | inhibited | inhibited | > 70 |  |  |  |  |
| CN1CCN(C2CCc3nn(-c4ccccn4)c(O)c3C2)CC1 (centres unmarked) [Compound 16, 5-(4-Methylpiperazin-1-yl)-2-(pyridin-2-yl)-4,5,6,7-tetrahydro-2H-indazol-3-ol] |  |  | > 70 | effectively inhibited | effectively inhibited |  |  |
| CN(C1CCc2nn(-c3ccccn3)c(O)c2C1)C1CCCc2cccnc21 (centres unmarked) [Compound 33, 5-[Methyl(5,6,7,8-tetrahydroquinolin-8-yl)amino]-2-(pyridin-2-yl)-4,5,6,7-tetrahydro-2H-indazol-3-ol] |  |  | 50 to 70 | effectively inhibited |  | effectively inhibited | effectively inhibited |
| CN1CCN(C2CCc3nn(-c4ccc(C(F)(F)F)cn4)c(O)c3C2)CC1 (centres unmarked) [Compound 82, 5-(4-Methylpiperazin-1-yl)-2-(5-(trifluoromethyl)pyridin-2-yl)-4,5,6,7-tetrahydro-2H-indazol-3-ol] |  |  | 50 to 70 |  | effectively inhibited |  |  |
| Oc1c2c(nn1-c1ccccn1)CCC(Nc1ccc(F)c(F)c1)C2 (centres unmarked) [Compound 32, 5-(3,4-Difluorophenylamino)-2-(pyridin-2-yl)-4,5,6,7-tetrahydro-2H-indazol-3-ol] |  |  | 50 to 70 |  | effectively inhibited |  |  |
| CN(Cc1ccc(F)cc1F)C1CCc2nn(-c3ccccn3)c(O)c2C1 (centres unmarked) [Compound 5, 5-[(2,4-Difluorobenzyl)methylamino]-2-(pyridin-2-yl)-4,5,6,7-tetrahydro-2H-indazol-3-ol] |  |  | > 70 | effectively inhibited |  | effectively inhibited | effectively inhibited |
| CN(Cc1ccc(S(C)(=O)=O)cc1)C1CCc2nn(-c3ccccn3)c(O)c2C1 (centres unmarked) [Compound 12, 5-[(4-Methanesulfonylbenzyl)methylamino]-2-(pyridin-2-yl)-4,5,6,7-tetrahydro-2H-indazol-3-ol] |  |  | > 70 | effectively inhibited | effectively inhibited |  |  |
| O=C(C1CC1)N1CCN(C2CCc3nn(-c4ccccn4)c(O)c3C2)CC1 (centres unmarked) [Compound 38, Cyclopropyl[4-(3-hydroxy-2-(pyridin-2-yl)-4,5,6,7-tetrahydro-2-indazol-5-yl)piperazin-1-yl]methanone] |  |  | > 70 | effectively inhibited |  | effectively inhibited | effectively inhibited |
| CN(Cc1cc2ccccc2cn1)C1CCc2nn(-c3ccccn3)c(O)c2C1 (centres unmarked) [Compound 62, 5-[(Isoquinolin-3-ylmethyl)methylamino]-2-(pyridin-2-yl)-4,5,6,7-tetrahydro-2H-indazol-3-ol] |  |  | > 70 | effectively inhibited |  | effectively inhibited | effectively inhibited |
